Data published in patent US8362000B2, “Azetidinyl diamides as monoacylglycerol lipase inhibitors” (Janssen Pharmaceutica NV, priority 2009, dated 2013).
Changes are numbered by the printed parent chain. Where two headings read alike, the source gives them in different places.

Tests used:
[1] = molecular target: T1, purified wild type MGL (wt-MGLL 6H-11-313) (Homo sapiens, UniProt Q99685)
T1 sequence (Q99685 1-303): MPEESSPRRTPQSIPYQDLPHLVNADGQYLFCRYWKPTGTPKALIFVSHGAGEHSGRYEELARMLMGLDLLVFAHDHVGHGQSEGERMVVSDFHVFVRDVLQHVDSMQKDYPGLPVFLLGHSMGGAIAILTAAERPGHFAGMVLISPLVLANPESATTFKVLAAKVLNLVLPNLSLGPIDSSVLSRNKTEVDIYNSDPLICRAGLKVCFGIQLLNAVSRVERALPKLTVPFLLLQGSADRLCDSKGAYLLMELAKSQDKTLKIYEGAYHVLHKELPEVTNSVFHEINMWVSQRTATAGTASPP

[2] = test system: CFA-induced paw radiant heat hypersensitivity; assay: CFA-induced paw radiant heat hypersensitivity; assay type: in vivo, rat; conditions: Rattus norvegicus, po, 30 mg/kg p.o., HPβCD, last time point 180 or 300 min
Protocol: Each rat was placed in a test chamber on a warm glass surface and allowed to acclimate for approximately 10 min. A radiant thermal stimulus (beam of light) was then focused through the glass onto the plantar surface of each hind paw in turn. The thermal stimulus was automatically shut off by a photoelectric relay when the paw was moved or when the cut-off time was reached (20 sec for radiant heat at ˜5 amps). An initial (baseline) response latency to the thermal stimulus was recorded for each animal prior to the injection of complete Freund's adjuvant (CFA). […] Immediately following the post-CFA latency assessment, the indicated test compound or vehicle was administered orally.
The percent reversal (% R) of hypersensitivity was calculated in one of two different ways: 1) using group mean values or 2) using individual animal values. More specifically:
Method 2. For some compounds, the % R of hypersensitivity was calculated separately for each animal according to the following formula: % reversal=[(individual treatment response−individual CFA response)/(individual baseline response−individual CFA response)]×100. Results are given as a mean of the maximum % reversal values calculated for each individual animal.

mutant MGL = molecular target: T2, mutant MGL (Homo sapiens, UniProt Q99685, L169S/L176S); assay: MGL ThermoFluor assay - mutant; assay type: binding
T2 sequence (Q99685 1-303 L169S/L176S): T1 sequence (Q99685 1-303) with L169S, L176S

MGL = molecular target: T3, MGL (Rattus norvegicus, UniProt Q8R431); assay: 2-AG accumulation assay in rat brain homogenate; assay type: biochemical; conditions: rat brain homogenate, 2-AG accumulation as percent of vehicle; for 2-AG accumulation, % of vehicle control at 1 µM: compound 1 μM, read-out: Rat Brain 2AG % VehCntrl (%) @ 1 μM; for 2-AG accumulation, % of vehicle control at 10 µM: compound 10 μM, read-out: Rat Brain 2AG % VehCntrl (%) @ 10 μM
T3 construct: one g rat brain was homogenized using a Polytron homogenizer; from tissue; host or cells: rat brain homogenate
T3 sequence (Q8R431 1-303): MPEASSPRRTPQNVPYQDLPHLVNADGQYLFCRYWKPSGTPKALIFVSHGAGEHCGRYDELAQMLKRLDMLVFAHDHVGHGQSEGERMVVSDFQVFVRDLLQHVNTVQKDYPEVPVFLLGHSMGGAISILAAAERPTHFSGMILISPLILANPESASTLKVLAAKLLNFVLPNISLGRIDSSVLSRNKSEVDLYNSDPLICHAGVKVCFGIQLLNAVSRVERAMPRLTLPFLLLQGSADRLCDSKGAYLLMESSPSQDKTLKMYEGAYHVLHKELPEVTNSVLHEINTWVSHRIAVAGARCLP

[3] = group mean values, read-out: CFA thermal hypersensitivity Method 1: peak % reversal
[4] = ThermoFluor concentration-response, read-out: MGL mutant ThermoFluor Kd
[5] = individual animal values, read-out: CFA thermal hypersensitivity Method 2: peak % reversal
[6] = ThermoFluor thermal stability binding assay, read-out: MGL mutant ThermoFluor Kd

SMILES | IC50 [1] [nM] | Kd (mutant MGL; [4]) [µM] | 2-AG accumulation, % of vehicle control at 1 µM (MGL) [%] | 2-AG accumulation, % of vehicle control at 0.1 µM (MGL; compound 0.1 μM, read-out: Rat Brain 2AG % VehCntrl (%) @ 0.1 μM) [%] | 2-AG accumulation, % of vehicle control at 10 µM (MGL) [%] | Kd (mutant MGL; [6]) [µM] | Kd (mutant MGL; ThermoFluor, compound concentration measured by qNMR, read-out: MGL mutant ThermoFluor qKd (μM) (using qNMR conc.)) [µM] | inhibition in vivo at 30 mg/kg [2, 3] [%] | inhibition in vivo at 30 mg/kg [2, 5] [%]
O=C(c1cccc(-c2ccc(F)cc2F)c1)N1CC(N2CCN(C(=O)c3nccs3)CC2)C1 [Cpd 1117, 1-{1-[(2′,4′-Difluorobiphenyl-3-yl)carbonyl]azetidin-3-yl}-4-(1,3-thiazol-2-ylcarbonyl)piperazine] | 16 | 0.214 | 437 |  |  |  |  | 23.2 | 
O=C(c1cscn1)N1CCN(C2CN(C(=O)c3ccc(-c4ccccc4)cc3F)C2)CC1 [Cpd 1108, 1-{1-[(3-Fluorobiphenyl-4-yl)carbonyl]azetidin-3-yl}-4-(1,3-thiazol-4-ylcarbonyl)piperazine] | 14 | 0.063 | 204 | 117 | 456 |  |  | 84.9 | 99.2
O=C(c1ccccc1)N1CCN(C2CN(C(=O)c3ccc(-c4ccc(Cl)c(C(F)(F)F)c4)cc3)C2)CC1 [Cpd 232, 1-(1-{[4′-Chloro-3′-(trifluoromethyl)biphenyl-4-yl]carbonyl}azetidin-3-yl)-4-(phenylcarbonyl)piperazine] | 82.9 |  | 152 |  | 427 |  |  | 9.6 | 8
O=C(c1ccc2c(ccn2-c2ncccn2)c1)N1CC(N2CCN(C(=O)c3nccs3)CC2)C1 [Cpd 1174, 1-Pyrimidin-2-yl-5-({3-[4-(1,3-thiazol-2-ylcarbonyl)piperazin-1-yl]azetidin-1-yl}carbonyl)-1H-indole] | 66 | 0.015 |  |  |  |  |  | 13.6 | 
Cn1cc(-c2ccccc2)c2ccc(C(=O)N3CC(N4CCN(C(=O)c5nccs5)CC4)C3)cc21 [Cpd 1132, 1-Methyl-3-phenyl-6-({3-[4-(1,3-thiazol-2-ylcarbonyl)piperazin-1-yl]azetidin-1-yl}carbonyl)-1H-indole] | 23 | 0.002 |  |  |  |  |  | 0 | 
O=C(c1ccc2c(cnn2-c2ccc(F)c(F)c2)c1)N1CC(N2CCN(C(=O)c3nccs3)CC2)C1 [Cpd 1106, 1-(3,4-Difluorophenyl)-5-({3-[4-(1,3-thiazol-2-ylcarbonyl)piperazin-1-yl]azetidin-1-yl}carbonyl)-1H-indazole] |  |  | 784 |  |  |  |  | 45 | 
Cc1cn(-c2ccc(F)cc2)c2ccc(C(=O)N3CC(N4CCN(C(=O)c5nccs5)CC4)C3)cc12 [Cpd 1088, 1-(4-Fluorophenyl)-3-methyl-5-({3-[4-(1,3-thiazol-2-ylcarbonyl)piperazin-1-yl]azetidin-1-yl}carbonyl)-1H-indole] |  |  | 760 |  |  | 0.001 |  | 35.3 | 
O=C(c1ccc2nc(-c3ccccc3)sc2c1)N1CC(N2CCN(C(=O)c3nccs3)CC2)C1 [Cpd 1125, 2-Phenyl-6-({3-[4-(1,3-thiazol-2-ylcarbonyl)piperazin-1-yl]azetidin-1-yl}carbonyl)-1,3-benzothiazole] | 19 | 0.037 |  |  |  |  |  | 64.5 | 90.3
O=C(c1ccc2oc(-c3ccccc3)nc2c1)N1CC(N2CCN(C(=O)c3nccs3)CC2)C1 [Cpd 317, 2-Phenyl-5-({3-[4-(1,3-thiazol-2-ylcarbonyl)piperazin-1-yl]azetidin-1-yl}carbonyl)-1,3-benzoxazole] |  |  | 417 |  |  |  |  | 43 | 
O=C(c1nccs1)N1CCN(C2CN(C(=O)c3sc4c(F)c(C(F)(F)F)ccc4c3Cl)C2)CC1 [Cpd 650] | 6 |  | 960 |  |  |  |  | 29.9 | 

Second part, led by results:

IC50 [1] [nM] | Kd (mutant MGL; [4]) [µM] | 2-AG accumulation, % of vehicle control at 1 µM (MGL) [%] | 2-AG accumulation, % of vehicle control at 0.1 µM (MGL; compound 0.1 μM, read-out: Rat Brain 2AG % VehCntrl (%) @ 0.1 μM) [%] | 2-AG accumulation, % of vehicle control at 10 µM (MGL) [%] | Kd (mutant MGL; [6]) [µM] | Kd (mutant MGL; ThermoFluor, compound concentration measured by qNMR, read-out: MGL mutant ThermoFluor qKd (μM) (using qNMR conc.)) [µM] | SMILES | inhibition in vivo at 30 mg/kg [2, 3] [%] | inhibition in vivo at 30 mg/kg [2, 5] [%]
< 5 | 0.001 |  |  |  |  |  | O=C(c1ccc2c(-c3cccc(C(F)(F)F)c3)c[nH]c2c1)N1CC(N2CCN(C(=O)c3nccs3)CC2)C1 [Cpd 1341, 6-({3-[4-(1,3-Thiazol-2-ylcarbonyl)piperazin-1-yl]azetidin-1-yl}carbonyl)-3-[3-(trifluoromethyl)phenyl]-1H-indole] | 7.5 | 
< 5 |  |  |  |  | 0.0004 |  | O=C(c1nccs1)N1CCN(C2CN(C(=O)c3sc4cc(Br)ccc4c3Cl)C2)CC1 [Cpd 326, 1-{1-[(6-Bromo-3-chloro-1-benzothiophen-2-yl)carbonyl]azetidin-3-3yl}-4-(1,3-thiazol-2-ylcarbonyl)piperazine] | 17.3 | 17.5
< 5 |  |  |  |  |  |  | O=C(c1nccs1)N1CCN(C2CN(C(=O)c3sc4cc(C(F)(F)F)ccc4c3F)C2)CC1 [Cpd 895, 1-(1-{[3-Fluoro-6-(trifluoromethyl)-1-benzothiophen-2-yl]carbonyl}azetidin-3-yl)-4-(1,3-thiazol-2-ylcarbonyl)piperazine] | 23.4 | 
5 |  |  |  |  | 0.001 | 0.001 | Cc1cn(-c2ccccc2)c2ccc(C(=O)N3CC(N4CCN(C(=O)c5nccs5)CC4)C3)cc12 [Cpd 1054] | 27.6 | 
< 5 | 0.008 |  |  |  |  |  | O=C(c1ccc2c(ccn2-c2ccc(C(F)(F)F)cc2)c1)N1CC(N2CCN(C(=O)c3cscn3)CC2)C1 [Cpd 1359, 5-({3-[4-(1,3-Thiazol-4-ylcarbonyl)piperazin-1-yl]azetidin-1-yl}carbonyl)-1-[4-(trifluoromethyl)phenyl]-1H-indole] | 5.1 | 12.7
< 5 | 0.002 |  |  |  |  |  | O=C(c1ccc2c(ccn2-c2ccc(C(F)(F)F)cc2)c1)N1CC(N2CCN(C(=O)c3nccs3)CC2)C1 [Cpd 1357, 5-({3-[4-(1,3-Thiazol-2-ylcarbonyl)piperazin-1-yl]azetidin-1-yl}carbonyl)-1-[4-(trifluoromethyl)phenyl]-1H-indole] | 51 | 46.1
< 5 | 0.007 |  |  |  |  |  | O=C(c1ccc2c(ccn2-c2ccc(F)cc2)c1)N1CC(N2CCN(C(=O)c3cscn3)CC2)C1 [Cpd 1358, 1-(4-Fluorophenyl)-5-({3-[4-(1,3-thiazol-4-ylcarbonyl)piperazin-1-yl]azetidin-1-yl}carbonyl)-1H-indole] | 25.4 | 
< 5 |  |  |  |  |  |  | Cc1c(C(=O)N2CC(N3CCN(C(=O)c4nccs4)CC3)C2)sc2cc(C(F)(F)F)ccc12 [Cpd 899, 1-(1-{[3-Methyl-6-(trifluoromethyl)-1-benzothiophen-2-yl]carbonyl}azetidin-3-yl)-4-(1,3-thiazol-2-ylcarbonyl)piperazine] | 80.1 | 
